Reference: patent US20070275935A1, “Estratriene Derivatives” (priority 2003, published 2007)

System: bleomycin-induced fibrosis in C57BL6 female mice
Assay: Bleomycin model of pulmonary fibrosis in mice
Type: in vivo
Settings: 4NO 50 mg/kg/day i.p.
Experimental: The activity of CP-DM-2-11-7 was investigated using a bleomycin model of pulmonary fibrosis (Underwood et al. 2000). 4NO was administered daily commencing on the day of the bleomycin challenge, 2 hours before the mice received bleomycin. The 4NO (50 mg/kg/day, by intraperitoneal injection) was then administered throughout the 14 day period. The mice also received a daily injection of bromo-deoxyuridine (BrdU) by intraperitoneal injection). The other two groups of mice), control and bleomycin-treated received a daily intraperitoneal injection of the vehicle containing BrdU. The vehicle comprised 10% dimethyl sulphoxide in peanut oil. […]
Body weight was measured throughout the experiment. […] After a 5 minute stabilization period, values of resistance and compliance were recorded and the animal was killed by a lethal dose of pentabarbitone.
Half of each group of animals was then subjected to bronchoalveolar lavage (BAL) to generate BAL fluid (BALF) in which the number of infiltrating cells was counted by haemocytometry. […]
Tissue areas reported in Table 6 were determined by capturing images of the lung section at a 100 times magnification and importing those images into a powerpoint file. […]
A 36 point overlay was then applied to the captured image and the number of grid points that intersect with tissue was determined for each of the 10 selected fields. […]

SMILES: COc1cc2c(cc1O)C(=NOCc1ccc([N+](=O)[O-])cc1)C[C@@H]1[C@@H]2CC[C@]2(C)[C@@H](O)CC[C@@H]12 [CP-DM-2-11-7, 2-methoxy-6-(4-nitrobenzyloxy)iminoestradiol]
- Proliferation Epithelial (BrdU positive nuclei as percentage of total nuclei, major airway, n = 6, bleomycin alone 4.646 ± 0.8564): 3.802 ± 0.9053
- Parenchymal Cell Prolif. (magnification of 600×, bleomycin alone 1340 ± 287): 738 ± 185 positive cells/10^6 pixels
